Test results: patent publication US12618062B2, “Display of molecules on silently genetically encoded nanoscale carriers for determining synergistic molecular interactions” (The Governors of the University of Alberta, priority 2017, dated 2026)

Target: T1, Ulex Europaeus Agglutinin (UEA lectin) (Ulex europaeus, UniProt P22972)
T1 sequence (P22972 1-243): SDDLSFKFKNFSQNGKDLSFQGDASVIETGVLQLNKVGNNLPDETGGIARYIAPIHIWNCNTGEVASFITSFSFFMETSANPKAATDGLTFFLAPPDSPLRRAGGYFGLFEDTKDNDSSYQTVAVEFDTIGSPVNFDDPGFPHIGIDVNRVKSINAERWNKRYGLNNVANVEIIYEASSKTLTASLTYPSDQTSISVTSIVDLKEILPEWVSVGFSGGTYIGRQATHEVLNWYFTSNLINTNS
Assay: Pull-down of liquid glycan array and deep sequencing
Type: binding
Conditions: array of 74 glycans; FIG. 6H
From the text: The washing step was repeated three times.

Substance	Enrichment in pull down by plant lectin UGA
Fucα1-2Galb1-4[Fucα1-3]GlcNAcb-Phage [Te118]	enrichment not detected
GalNAcα1-3 [Fucα1-2]Galβ1-4G1cNAcβ-Phage [Te222]	enrichment not detected
